Data as given in ChEMBL document CHEMBL3639186, “Modulators of serotonin receptor” (2013).

Biological target: 5-hydroxytryptamine receptor 7 (Rattus norvegicus, UniProt P32305)
Assay: Biological Assay: Compound affinity for the rat 5-HT7 receptor subtype was evaluated by competitive radioligand binding assay using 5-carboxamido[H3]typtamine ([3H]5-CT)(Amersham Biosciences) detection.

5-hydroxytryptamine receptor 7, sequence (P32305 whole entry): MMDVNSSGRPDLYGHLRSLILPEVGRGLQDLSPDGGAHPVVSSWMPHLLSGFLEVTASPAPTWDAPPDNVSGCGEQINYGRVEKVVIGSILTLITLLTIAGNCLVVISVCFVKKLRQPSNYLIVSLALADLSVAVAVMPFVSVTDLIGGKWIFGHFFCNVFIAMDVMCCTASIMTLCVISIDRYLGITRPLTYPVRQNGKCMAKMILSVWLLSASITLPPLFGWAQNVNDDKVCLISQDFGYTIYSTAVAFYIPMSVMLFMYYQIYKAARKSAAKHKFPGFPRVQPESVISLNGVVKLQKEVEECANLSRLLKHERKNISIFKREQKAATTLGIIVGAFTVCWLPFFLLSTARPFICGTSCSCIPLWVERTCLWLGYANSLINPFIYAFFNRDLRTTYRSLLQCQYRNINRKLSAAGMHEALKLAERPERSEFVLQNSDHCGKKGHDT

Ki: ≥ 10 µM
SMILES: Cc1cc(C#N)c(OC2CNC2)cc1-c1ccccc1
